Data from PubChem BioAssay AID2060493 (Molecular Pharmacology Branch, DTP, NCI, 2025).

System: 616215-338-R-J1-PDC tumor spheroids, viability
Assay: Anticancer human tumor 616215-338-R-J1-PDC patient-derived colon adenocarcinoma cell line growth inhibition [GQUAD]
Conditions: spheroids with HUVEC and MSC; for IC50: curve of first compound; for viability, T/C: stronger effect = lower value
Summary of the method: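 Multi-cell-type spheroids of tumor cells with HUVEC and mesenchymal stem cells, treated with drug combinations. Concentrations descend in half-log steps from near clinical Cmax, or from 10 microM where Cmax is unknown; viability read-out.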

[1] = second compound 0.0316 µM, first compound 0.0316 µM
[2] = second compound 0.0316 µM, first compound 0.1 µM
[3] = second compound 0.0316 µM, first compound 0.316 µM
[4] = second compound 0.0316 µM, first compound 1 µM
[5] = second compound 0.0316 µM, first compound 3.16 µM
[6] = second compound 0.0316 µM, first compound 10 µM
[7] = second compound 0.1 µM, first compound 0.0316 µM
[8] = second compound 0.1 µM, first compound 0.1 µM
[9] = second compound 0.1 µM, first compound 0.316 µM
[10] = second compound 0.1 µM, first compound 1 µM
[11] = second compound 0.1 µM, first compound 3.16 µM
[12] = second compound 0.1 µM, first compound 10 µM
[13] = second compound 0.316 µM, first compound 0.0316 µM
[14] = second compound 0.316 µM, first compound 0.1 µM
[15] = second compound 0.316 µM, first compound 0.316 µM
[16] = second compound 0.316 µM, first compound 1 µM
[17] = second compound 0.316 µM, first compound 3.16 µM
[18] = second compound 0.316 µM, first compound 10 µM
[19] = second compound 1 µM, first compound 0.0316 µM
[20] = second compound 1 µM, first compound 0.1 µM
[21] = second compound 1 µM, first compound 0.316 µM
[22] = second compound 1 µM, first compound 1 µM
[23] = second compound 1 µM, first compound 3.16 µM
[24] = second compound 1 µM, first compound 10 µM
[25] = second compound 3.16 µM, first compound 0.0316 µM
[26] = second compound 3.16 µM, first compound 0.1 µM
[27] = second compound 3.16 µM, first compound 0.316 µM
[28] = second compound 3.16 µM, first compound 1 µM
[29] = second compound 3.16 µM, first compound 3.16 µM
[30] = second compound 3.16 µM, first compound 10 µM
[31] = second compound 10 µM, first compound 0.0316 µM
[32] = second compound 10 µM, first compound 0.1 µM
[33] = second compound 10 µM, first compound 0.316 µM
[34] = second compound 10 µM, first compound 1 µM
[35] = second compound 10 µM, first compound 3.16 µM
[36] = second compound 10 µM, first compound 10 µM
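Also: spheroids exposed to agents for 7 days before readout.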
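For viability, T/C in this document: percent viability relative to DMSO vehicle control wells taken as 100%.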

## CC1COCCN1c1cc(C2(O)CC3CCC(C2)O3)c2cnn(-c3ccn[nH]3)c2n1 (stereo unspecified) + Cc1[nH]c2ccc(F)cc2c1-c1nc2c3cccnc3c3ncccc3c2[nH]1
Second compound 0.0316 µM
  IC50: 0.236 µM
Second compound 0.1 µM
  IC50: 0.226 µM
Second compound 0.316 µM
  IC50: 0.234 µM
Second compound 1 µM
  IC50: 0.222 µM
Second compound 3.16 µM
  IC50: 0.176 µM
Second compound 10 µM
  IC50: 0.12 µM
[1]
  viability, T/C: 95.4%
[2]
  viability, T/C: 78%
[3]
  viability, T/C: 40.1%
[4]
  viability, T/C: 30.6%
[5]
  viability, T/C: 28.8%
[6]
  viability, T/C: 25.9%
[7]
  viability, T/C: 90.2%
[8]
  viability, T/C: 83.9%
[9]
  viability, T/C: 35.6%
[10]
  viability, T/C: 31.1%
[11]
  viability, T/C: 23.8%
[12]
  viability, T/C: 17%
[13]
  viability, T/C: 91.8%
[14]
  viability, T/C: 61.5%
[15]
  viability, T/C: 42.4%
[16]
  viability, T/C: 40%
[17]
  viability, T/C: 26.1%
[18]
  viability, T/C: 19.9%
[19]
  viability, T/C: 99.5%
[20]
  viability, T/C: 59.7%
[21]
  viability, T/C: 47.4%
[22]
  viability, T/C: 32.7%
[23]
  viability, T/C: 23.2%
[24]
  viability, T/C: 19.3%
[25]
  viability, T/C: 92.4%
[26]
  viability, T/C: 71.8%
[27]
  viability, T/C: 27.2%
[28]
  viability, T/C: 31.7%
[29]
  viability, T/C: 25.7%
[30]
  viability, T/C: 16.4%
[31]
  viability, T/C: 88.4%
[32]
  viability, T/C: 50.8%
[33]
  viability, T/C: 36.1%
[34]
  viability, T/C: 30%
[35]
  viability, T/C: 20.8%
[36]
  viability, T/C: 20.2%

## O=C(c1cc(Cc2n[nH]c(=O)c3ccccc23)ccc1F)N1CCN(C(=O)C2CC2)CC1 + Cc1[nH]c2ccc(F)cc2c1-c1nc2c3cccnc3c3ncccc3c2[nH]1
Second compound 0.0316 µM
  IC50: > 10 µM
Second compound 0.1 µM
  IC50: > 10 µM
Second compound 0.316 µM
  IC50: > 10 µM
Second compound 1 µM
  IC50: > 10 µM
Second compound 3.16 µM
  IC50: > 10 µM
Second compound 10 µM
  IC50: > 10 µM
[1]
  viability, T/C: 99.5%
[2]
  viability, T/C: 97%
[3]
  viability, T/C: 107%
[4]
  viability, T/C: 101%
[5]
  viability, T/C: 98.6%
[6]
  viability, T/C: 74.2%
[7]
  viability, T/C: 102%
[8]
  viability, T/C: 100%
[9]
  viability, T/C: 93.8%
[10]
  viability, T/C: 102%
[11]
  viability, T/C: 105%
[12]
  viability, T/C: 72.3%
[13]
  viability, T/C: 93.9%
[14]
  viability, T/C: 105%
[15]
  viability, T/C: 98.9%
[16]
  viability, T/C: 100%
[17]
  viability, T/C: 104%
[18]
  viability, T/C: 73.7%
[19]
  viability, T/C: 98.8%
[20]
  viability, T/C: 95.1%
[21]
  viability, T/C: 104%
[22]
  viability, T/C: 107%
[23]
  viability, T/C: 85.9%
[24]
  viability, T/C: 53.4%
[25]
  viability, T/C: 99.5%
[26]
  viability, T/C: 105%
[27]
  viability, T/C: 95%
[28]
  viability, T/C: 96.8%
[29]
  viability, T/C: 110%
[30]
  viability, T/C: 67.2%
[31]
  viability, T/C: 96.5%
[32]
  viability, T/C: 87.6%
[33]
  viability, T/C: 98.2%
[34]
  viability, T/C: 84.3%
[35]
  viability, T/C: 91.3%
[36]
  viability, T/C: 52%

## Cn1ncnc1[C@H]1c2n[nH]c(=O)c3cc(F)cc(c23)N[C@@H]1c1ccc(F)cc1 + Cc1cnc(CNC(=O)c2c(=O)c3ccc(N4CCCN(C)CC4)nc3n3c2sc2ccccc23)cn1
Second compound 0.0316 µM
  IC50: > 0.316 µM
Second compound 0.1 µM
  IC50: 0.237 µM
Second compound 0.316 µM
  IC50: < 0.000999 µM
Second compound 1 µM
  IC50: < 0.000999 µM
Second compound 3.16 µM
  IC50: < 0.000999 µM
Second compound 10 µM
  IC50: < 0.000999 µM
Second compound 0.0316 µM, first compound 0.000999 µM
  viability, T/C: 102%
Second compound 0.0316 µM, first compound 0.00316 µM
  viability, T/C: 99.4%
Second compound 0.0316 µM, first compound 0.00999 µM
  viability, T/C: 104%
[1]
  viability, T/C: 94.8%
Second compound 0.0316 µM, first compound 0.0999 µM
  viability, T/C: 86.5%
[3]
  viability, T/C: 77.9%
Second compound 0.1 µM, first compound 0.000999 µM
  viability, T/C: 68.2%
Second compound 0.1 µM, first compound 0.00316 µM
  viability, T/C: 75.2%
Second compound 0.1 µM, first compound 0.00999 µM
  viability, T/C: 77.9%
[7]
  viability, T/C: 56.5%
Second compound 0.1 µM, first compound 0.0999 µM
  viability, T/C: 58.5%
[9]
  viability, T/C: 48.1%
Second compound 0.316 µM, first compound 0.000999 µM
  viability, T/C: 40.9%
Second compound 0.316 µM, first compound 0.00316 µM
  viability, T/C: 53.4%
Second compound 0.316 µM, first compound 0.00999 µM
  viability, T/C: 44.3%
[13]
  viability, T/C: 44.4%
Second compound 0.316 µM, first compound 0.0999 µM
  viability, T/C: 48.4%
[15]
  viability, T/C: 29.5%
Second compound 1 µM, first compound 0.000999 µM
  viability, T/C: 28.2%
Second compound 1 µM, first compound 0.00316 µM
  viability, T/C: 34.9%
Second compound 1 µM, first compound 0.00999 µM
  viability, T/C: 27.3%
[19]
  viability, T/C: 44.1%
Second compound 1 µM, first compound 0.0999 µM
  viability, T/C: 33.2%
[21]
  viability, T/C: 33.2%
Second compound 3.16 µM, first compound 0.000999 µM
  viability, T/C: 34.9%
Second compound 3.16 µM, first compound 0.00316 µM
  viability, T/C: 27.5%
Second compound 3.16 µM, first compound 0.00999 µM
  viability, T/C: 26.4%
[25]
  viability, T/C: 30.6%
Second compound 3.16 µM, first compound 0.0999 µM
  viability, T/C: 29%
[27]
  viability, T/C: 33.3%
Second compound 10 µM, first compound 0.000999 µM
  viability, T/C: 31.2%
Second compound 10 µM, first compound 0.00316 µM
  viability, T/C: 27.4%
Second compound 10 µM, first compound 0.00999 µM
  viability, T/C: 30.1%
[31]
  viability, T/C: 35.5%
Second compound 10 µM, first compound 0.0999 µM
  viability, T/C: 27.4%
[33]
  viability, T/C: 30.2%
